This is an account of results in patent US5225607A, “Insecticidal ethers” (Imperial Chemical Industries PLC, priority 1985, dated 1993).

Each structure is given as a SMILES string.

What all share (type): in vivo
One test deals with Heliothis virescens. The experiment in a line: whole plant or invertebrate. Conditions: in Gossypium hirsutum, 72 h, read-out: grading of mortality, HV. The gist of the method:
(§1)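 Acetone solution diluted in water + 0.01% wetting agent; 500/250/100 ppm. Treat pests and/or host plant/food medium. Read mortality/knockdown day 1–3. Grades: A 80–100% (S. exigua 70–100%), B 50–79% (50–69%), C <50%.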

Test [1] relates to Musca domestica. As to the kind of experiment: Insecticidal test, Musca domestica (houseflies - adults), contact. The note with it: 24 h, cotton wool/sugar, 1 day, read-out: grading of mortality, MD. The gist of the method: as §1
Another test deals with Tetranychus urticae. As to the kind of experiment: Insecticidal/acaricidal test, Tetranychus urticae (spider mites - adult), contact. Conditions: 72 h, French bean leaf, 3 days, read-out: grading of mortality, TU. In short, it runs like this:
as §1

The test system of test [2] is Musca domestica. The experiment in a line: Knockdown test, Musca domestica (houseflies - adults). Conditions: cotton wool/sugar, 4 hours, read-out: grading of knockdown, MD/KD. The gist of the method: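 Knockdown scores were banded: A 80–100%, B 50–79%, C <50%. Test preparations of 500, 250 or 100 ppm compound were made in acetone, then diluted with water containing 0.01% Lissapol NX, and applied to Musca domestica adults.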

The next test concerns Diabrotica balteata. As to the kind of experiment: Insecticidal test, Diabrotica balteata (rootworm larvae), residual. Conditions: 72 h, filter paper/maize seed, 3 days, read-out: grading of mortality, DB. In short, it runs like this: as §1
In a further test the test system is Myzus persicae. As to the kind of experiment: Insecticidal test, Myzus persicae (aphids), contact. Conditions: 72 h, Chinese Cabbage leaf, 3 days, read-out: grading of mortality, MP. The gist of the method:
as §1

In another test the test system is Blattella germanica. As to the kind of experiment: Insecticidal test, Blattella germanica (cockroach nymphs), residual. Conditions: 72 h, plastic pot, 3 days, read-out: grading of mortality, BG. In short, it runs like this: as §1
For another test, the system named is Spodoptera exigua. As to the kind of experiment: Insecticidal test, Spodoptera exigua (lesser armyworm), residual. Conditions: 72 h, cotton leaf, 3 days, read-out: grading of mortality, SE. Here is the method:
The activity of the Product was determined using a variety of insect and acarine pests. The Product was used in the form of liquid preparations containing 500, 250 or 100 parts per million (ppm) by weight of the Product. The preparations were made by dissolving the Product in acetone and diluting the solutions with water containing 0.01% by weight of a wetting agent sold under the trade name "LISSAPOL" NX until the liquid preparations contained the required concentratio of the Product. "Lissapol" is a Registered Trade Mark.
The test procedure adopted with regard to each pest was basically the same and comprised supporting a number of the pests on a medium which was usually a host plant or a foodstuff on which the pests feed, and treating either or both the pests and the medium with the preparations. The mortality of the pests was then assessed at periods usually varying from one to three days after the treatment.
The results of the tests are given in Table IV for each of the Products, at the rate in parts per million given in the second column as a grading of mortality designated as A, B or C wherein A indicates 80-100% mortality or knockdown (70-100% in the case of Spodoptera exigua), B indicates 50-79% mortality or knockdown (50-69% in the case of Spodoptera exigua) and C indicates less than 50% mortality or knockdown.
In Table IV the pest organism used is designated by a letter code and the pest species, the support medium or food, and the type and duration of test is given in Table III.

Another test deals with Nilaparvata lugens. As to the kind of experiment: Insecticidal test, Nilaparvata lugens (brown planthopper), contact. The note with it: 72 h, Cabbage leaf, 3 days, read-out: grading of mortality, NL. The gist of the method: as §1

As to `FC(F)(F)C(COCc1cccc(Oc2ccccc2)c1)c1ccc2c(c1)OCO2` (stereo not drawn) [Compound 31, 1,1,1-Trifluoro-2-(3,4-methylenedioxyphenyl)-3-(3-phenoxybenzyloxy)propane], the mortality (usually the percentage killed) at 500 ppm in the test with Heliothis virescens is 80 to 100%; with Musca domestica [1] it was 80 to 100%; in the test with Tetranychus urticae it was below 50%; with Diabrotica balteata, 80 to 100%; with Myzus persicae, 80 to 100%; in the test on Blattella germanica, 80 to 100%. Moreover, the figures for the mortality at 500 ppm with Spodoptera exigua and in the test with Nilaparvata lugens were 70 to 100% and 80 to 100%, respectively. Moreover, the pest or weed control at 500 ppm in the test with Musca domestica [2] was in the range of 80 to 100%.

Take `FC(F)(F)C(COCc1cccc(Oc2ccc(Cl)cc2)c1)c1ccc2c(c1)OCO2` (stereo not drawn) [Compound 32, 1,1,1-Trifluoro-2-(3,4-methylenedioxyphenyl)-3-(3-(4-chlorophenoxy)benzyloxy)propane]: the mortality at 500 ppm in the test with Heliothis virescens is 80 to 100%; in the test with Musca domestica [1], 80 to 100%; in the test on Tetranychus urticae, below 50%; in the test on Diabrotica balteata, 80 to 100%; in the test with Myzus persicae it was 50 to 79%; with Blattella germanica, 50 to 79%. Further, the values for the mortality at 500 ppm with Spodoptera exigua and in the test on Nilaparvata lugens were 70 to 100% and 80 to 100%, respectively. The pest or weed control at 500 ppm with Musca domestica [2] fell in the range of 80 to 100%.

As for `Fc1ccc(C(Cl)(COCc2ccc(F)c(Oc3ccccc3)c2)C(F)(F)F)cc1` (stereo not drawn) [Compound 51, 1,1,1-Trifluoro-2-chloro-2-(4-fluorophenyl)-3-(3-phenoxy-4-fluorobenzyloxy)propane], the mortality at 100 ppm in the test on Heliothis virescens is 80 to 100%; with Musca domestica [1] it was below 50%; with Tetranychus urticae, below 50%; in the test on Diabrotica balteata it was 80 to 100%; in the test with Myzus persicae, below 50%; with Blattella germanica, below 50%. Moreover, the mortality at 100 ppm in the test with Spodoptera exigua lay within 70 to 100%; in the test with Nilaparvata lugens, 50 to 79%. In the test on Musca domestica [2], the pest or weed control at 100 ppm is below 50%.

For `FC(F)(F)Oc1ccc(C(Cl)(COCc2cccc(Oc3ccc(Cl)cc3)c2)C(F)(F)F)cc1` (stereo not drawn) [Compound 60, 1,1,1-Trifluoro-2-chloro-2-(4-trifluoromethoxyphenyl)-3-(3-(4-chlorophenoxy)benzyloxy)propane], the mortality at 100 ppm was 80 to 100% in the test on Heliothis virescens; below 50% with Musca domestica [1]; below 50% in the test on Tetranychus urticae; below 50% with Diabrotica balteata; 50 to 79% with Myzus persicae; 80 to 100% in the test on Blattella germanica. The mortality at 100 ppm lay in the range of 70 to 100% in the test with Spodoptera exigua and 80 to 100% in the test with Nilaparvata lugens. Moreover, in the test with Musca domestica [2], the pest or weed control at 100 ppm is below 50%.

On to `FC(F)(F)Oc1ccc(C(Cl)(COCc2cccc(Oc3ccccc3)n2)C(F)(F)F)cc1` (stereo not drawn) [Compound 61], for which the mortality at 100 ppm in the test on Heliothis virescens, in the test on Musca domestica [1], with Tetranychus urticae, with Diabrotica balteata, with Myzus persicae and with Blattella germanica was 80 to 100% throughout. Moreover, the results for the mortality at 100 ppm in the test with Spodoptera exigua and in the test with Nilaparvata lugens were 70 to 100% and 80 to 100%, respectively. Also, the pest or weed control at 100 ppm with Musca domestica [2] lay within 80 to 100%.

Regarding `FC(F)(F)C(Cl)(COCc1cccc(Oc2ccccc2)c1)c1ccc2c(c1)OCO2` (stereo not drawn) [Compound 64, 1,1,1-Trifluoro-2-chloro-2-(3,4-methylenedioxyphenyl)-3-(3-phenoxybenzyloxy)propane], the mortality at 500 ppm in the test with Heliothis virescens was 80 to 100%; with Musca domestica [1], 50 to 79%; in the test on Tetranychus urticae, below 50%; in the test on Diabrotica balteata it was below 50%; in the test with Myzus persicae, below 50%; in the test with Blattella germanica, below 50%. Further, the mortality at 500 ppm in the test on Spodoptera exigua and in the test with Nilaparvata lugens was below 50% throughout. In addition, the pest or weed control at 500 ppm in the test on Musca domestica [2] is 50 to 79%.

For the compound `FC(F)(F)C(Cl)(COCc1cccc(Oc2ccc(Cl)cc2)c1)c1ccc2c(c1)OCO2` (stereo not drawn) [Compound 65, 1,1,1-Trifluoro-2-chloro-2-(3,4-methylenedioxyphenyl)-3-(3-(4-chlorophenoxy)-benzyloxy)propane], the mortality at 500 ppm with Heliothis virescens is 80 to 100%; in the test with Musca domestica [1], below 50%; in the test on Tetranychus urticae, below 50%; in the test on Diabrotica balteata, below 50%; with Myzus persicae it was below 50%; with Blattella germanica, 80 to 100%. The mortality at 500 ppm was 50 to 69% with Spodoptera exigua and below 50% in the test with Nilaparvata lugens. Further, in the test on Musca domestica [2], the pest or weed control at 500 ppm was below 50%.

In the case of `Fc1ccc(COCC(F)(c2ccc(Br)cc2)C(F)(F)F)cc1Oc1ccccc1` (stereo not drawn) [Compound 83, 1,1,1,2-Tetrafluoro-2-(4-bromophenyl)-3-(3-phenoxy-4-fluorobenzyloxy)propane], the mortality at 500 ppm in the test with Heliothis virescens is 80 to 100%; with Musca domestica [1], 80 to 100%; in the test on Tetranychus urticae, below 50%; with Diabrotica balteata it was 80 to 100%; in the test with Myzus persicae, 80 to 100%; with Blattella germanica it was 80 to 100%. The mortality at 500 ppm with Spodoptera exigua lay in the range of 70 to 100%; with Nilaparvata lugens, 80 to 100%. In the test with Musca domestica [2], the pest or weed control at 500 ppm lay in the range of 80 to 100%.

Turning to `FC(F)(F)c1ccc(C(F)(COCc2cccc(Oc3ccccc3)c2)C(F)(F)F)cc1` (stereo not drawn) [Compound 84, 1,1,1,2-Tetrafluoro-2-(4-trifluoromethylphenyl)-3-(3-phenoxybenzyloxy)propane], the mortality at 500 ppm with Heliothis virescens, with Musca domestica [1], in the test with Tetranychus urticae, in the test on Diabrotica balteata, in the test with Myzus persicae and in the test on Blattella germanica was 80 to 100% each time. Moreover, the mortality at 500 ppm in the test on Spodoptera exigua fell in the range of 70 to 100%; in the test on Nilaparvata lugens it was 80 to 100%. Moreover, in the test with Musca domestica [2], the pest or weed control at 500 ppm lay in the range of 80 to 100%.

As for `Cc1ccc(C(O)(COCc2cccc(Oc3ccccc3)c2)C(F)(F)F)cc1` (stereo not drawn) [Compound 120, 1,1,1-Trifluoro-2-(4-methylphenyl)-3-(3-phenoxybenzyloxy)propan-2-ol], the mortality at 500 ppm with Heliothis virescens, in the test on Musca domestica [1], with Tetranychus urticae, in the test with Diabrotica balteata, in the test with Myzus persicae and with Blattella germanica was below 50% each time. The mortality at 500 ppm in the test with Spodoptera exigua and in the test on Nilaparvata lugens was below 50% each time. The pest or weed control at 500 ppm with Musca domestica [2] lay within 80 to 100%.

On to `OC(COCc1ccc(F)c(Oc2ccccc2)c1)(c1ccc(Br)cc1)C(F)(F)F` (stereo not drawn) [Compound 127, 1,1,1-Trifluoro-2-(4-bromophenyl)-3-(3-phenoxy-4-fluorobenzyloxy)propan-2-ol], for which the mortality at 500 ppm is below 50% with Heliothis virescens; 50 to 79% in the test on Musca domestica [1]; below 50% in the test with Tetranychus urticae; 80 to 100% with Diabrotica balteata; below 50% in the test on Myzus persicae; below 50% in the test on Blattella germanica. Moreover, the mortality at 500 ppm in the test on Spodoptera exigua was 50 to 69%; with Nilaparvata lugens, below 50%. In addition, in the test on Musca domestica [2], the pest or weed control at 500 ppm lay in the range of 80 to 100%.

For the compound `OC(COCc1cccc(Oc2ccccc2)c1)(c1ccc2c(c1)OCO2)C(F)(F)F` (stereo not drawn) [Compound 128, 1,1,1-trifluoro-2-(3,4-methylenedioxyphenyl)-3-(3-phenoxybenzyloxy)propan-2-ol], the mortality at 500 ppm was 80 to 100% in the test on Heliothis virescens; 50 to 79% in the test with Musca domestica [1]; below 50% with Tetranychus urticae; 50 to 79% in the test with Diabrotica balteata; below 50% with Myzus persicae; below 50% in the test with Blattella germanica. Besides, the mortality at 500 ppm in the test on Spodoptera exigua is 70 to 100%; in the test on Nilaparvata lugens, below 50%. Besides, in the test on Musca domestica [2], the pest or weed control at 500 ppm is below 50%.
